The target in experiment [1] is T1, Cox-1 (Homo sapiens, UniProt P23219).
T1 construct: platelets in whole blood contain a large amount of the Cox-1 enzyme; endogenous in cells; host or cells: platelets in fresh human whole blood (clotting)
Put plainly: Human whole blood assay, Cox-1 (clotting-induced TxB2 production). Format: cell-based. As to conditions: TxB2 following blood clotting. As to the method:
(§1) Immediately following blood clotting, platelets are activated through a thrombin-mediated mechanism.
Aliquots of 500 μL were immediately transferred to siliconized microcentrifuge tubes preloaded with 2 μL of either DMSO or a test compound at final concentrations varying from 10 nM to 30 μM. The tubes were vortexed and incubated at 37° C. for 1 hour to allow blood to clot.
(§2) In the assay, inhibition is determined by measuring the amount of prostaglandin E2 (PGE2) synthesized in the presence of arachidonic acid, cyclooxygenase-1 or cyclooxygenase-2 and a putative inhibitor.

Experiment [2] addresses T2, Cox-2 (Homo sapiens, UniProt P35354).
T2 construct: incubation of human whole blood with LPS (lipopoly saccharide), which induces Cox-2; endogenous in cells
T2 sequence (P35354 18-604): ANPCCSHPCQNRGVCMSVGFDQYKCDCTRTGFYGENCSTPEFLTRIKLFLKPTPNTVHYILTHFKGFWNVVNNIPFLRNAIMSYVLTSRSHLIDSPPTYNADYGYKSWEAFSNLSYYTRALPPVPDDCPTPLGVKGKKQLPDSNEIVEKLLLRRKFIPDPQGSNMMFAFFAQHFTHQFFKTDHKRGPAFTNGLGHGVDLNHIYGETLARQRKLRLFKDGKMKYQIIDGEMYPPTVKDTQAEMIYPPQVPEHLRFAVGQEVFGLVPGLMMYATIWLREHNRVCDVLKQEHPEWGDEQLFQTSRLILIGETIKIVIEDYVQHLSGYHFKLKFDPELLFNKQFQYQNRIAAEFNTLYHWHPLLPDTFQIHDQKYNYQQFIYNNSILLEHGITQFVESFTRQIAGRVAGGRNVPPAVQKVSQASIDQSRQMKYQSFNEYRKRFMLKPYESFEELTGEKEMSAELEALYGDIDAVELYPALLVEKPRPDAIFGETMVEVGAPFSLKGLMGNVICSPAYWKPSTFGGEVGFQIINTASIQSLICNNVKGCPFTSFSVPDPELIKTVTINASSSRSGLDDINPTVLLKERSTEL
As to the kind of experiment: Human whole blood assay, Cox-2 (LPS-induced PGE2 production). Format: cell-based. The conditions noted are these: PGE2 after LPS induction, 24 hours. As to the method:
as §1
Fresh blood was collected in heparinized tubes by venipuncture from both male and female volunteers. The subjects had no apparent inflammatory conditions and had not taken any NSAIDs for at least 7 days prior to blood collection. Plasma was immediately obtained from a 2 mL blood aliquot to use as blank (basal levels of PGE2).
as §2

Experiment [3] relates to rat paw edema. As to conditions: po, carrageenan paw edema, 3 hr. (In general: The carrageenan paw model is a standard test of acute inflammation.)
Experimental: Male Sprague-Dawley rats (150-200 g) were fasted overnight and were given po either vehicle (1% methocel or 5% Tween 80) or a test compound. One hr later, a line was drawn using a permanent marker at the level above the ankle in one hind paw to define the area of the paw to be monitored. The paw volume (V0) was measured using a plethysmometer (Ugo-Basile, Italy) based on the principle of water displacement. The animals were then injected subplantarly with 50 μl of 1% carrageenan solution in saline (FMC Corp, Maine) into the paw using an insulin syringe with a 25-gauge needle (i.e., 500 μg carrageenan per paw). Three hr later, the paw volume (V3) was measured and the increases in paw volume (V3 -V0) were calculated. The animals were sacrificed by CO2 aphyxiation and the absence or presence of stomach lesions scored. Data were compared with the vehicle-control values and percent inhibition calculated. […] All treatment groups were coded to eliminate observer bias.

T1 sequence (P23219 24-599): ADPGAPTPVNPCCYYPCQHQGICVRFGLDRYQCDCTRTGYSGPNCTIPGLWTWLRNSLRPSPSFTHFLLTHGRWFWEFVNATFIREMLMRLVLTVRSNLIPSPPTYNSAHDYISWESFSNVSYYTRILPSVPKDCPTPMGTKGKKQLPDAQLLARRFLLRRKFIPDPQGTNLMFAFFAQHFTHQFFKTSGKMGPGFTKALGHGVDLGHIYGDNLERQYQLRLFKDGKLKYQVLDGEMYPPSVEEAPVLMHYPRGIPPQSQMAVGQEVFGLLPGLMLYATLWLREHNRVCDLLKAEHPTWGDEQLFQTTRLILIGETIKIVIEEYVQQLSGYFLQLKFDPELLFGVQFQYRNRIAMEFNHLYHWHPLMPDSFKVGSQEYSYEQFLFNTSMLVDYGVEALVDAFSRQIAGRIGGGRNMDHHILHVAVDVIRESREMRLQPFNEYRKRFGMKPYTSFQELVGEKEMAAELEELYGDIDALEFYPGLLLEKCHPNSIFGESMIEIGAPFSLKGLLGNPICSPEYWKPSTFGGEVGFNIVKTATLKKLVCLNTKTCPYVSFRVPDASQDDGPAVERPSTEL

Turning to `CS(=O)(=O)c1ccc(-c2c(-c3ccccc3)nc3sccn23)cc1` [Example 1, 5-(4-(Methylsulfonyl)phenyl)-6-phenylimidazo[2,1-b]thiazole], the values for the IC50 in experiment [1] and in experiment [2] were above 30000 nM and 330 nM, respectively.
On to `COc1ccc2c(c1)c(CC(=O)O)c(C)n2C(=O)c1ccc(Cl)cc1` [Indomethacin, indomethacin], for which, in experiment [3], the ED50 (usually the dose that gives a 50% effect, or the effect in half of the subjects) turned out to be 2 mg/kg.

Values taken from patent US5552422A, “Aryl substituted 5,5 fused aromatic nitrogen compounds as anti-inflammatory agents” (Merck Frosst Canada, Inc., priority 1995, dated 1996).
